This note sets out measurements from article PMC5218480 (PLoS ONE, 2017).

Each structure is given as a SMILES string.

The test system of this experiment is MV-4-11 cells. The experiment can be described thus: Gene expression microarray analysis (Affymetrix PrimeView) and GSEA. The class given is cell-based, human. On the set-up: RFU PODN (11730768_x_at) / Fold change /veh PODN (11730768_x_at) / RFU LINC00158 (11744669_a_at) / Fold change /veh LINC00158 (11744669_a_at) / RFU DUSP10 (11751237_a_at) / Fold change /veh DUSP10 (11751237_a_at) / RFU ID3 (11757404_x_at) / Fold change /veh ID3 (11757404_x_at) / RFU PLEKHG5 (11737974_s_at) / Fold change /veh PLEKHG5 (11737974_s_at) / RFU LRRC4B (11730491_at) / Fold change /veh LRRC4B (11730491_at) / RFU GIMAP4 (11747438_a_at) / Fold change /veh GIMAP4 (11747438_a_at) / RFU KRT8 (11758183_x_at) / Fold change /veh KRT8 (11758183_x_at) / RFU CNN1 (11734310_a_at) / Fold change /veh CNN1 (11734310_a_at) / RFU VPS37D (11726825_at) / Fold change /veh VPS37D (11726825_at) / RFU C10orf10 (11716522_x_at) / Fold change /veh C10orf10 (11716522_x_at) / RFU KIR2DL2 /// KIR2DL4 /// KIR2DL5A /// KIR2DL5B /// KIR2DS1 /// KIR2DS2 /// KIR2DS3 /// KIR2DS4 /// KIR3DL3 /// KIR3DL3 /// KIR3DS1 (11738374_at) / Fold change /veh KIR2DL2 /// KIR2DL4 /// KIR2DL5A /// KIR2DL5B /// KIR2DS1 /// KIR2DS2 /// KIR2DS3 /// KIR2DS4 /// KIR3DL3 /// KIR3DL3 /// KIR3DS1 (11738374_at) / RFU C1QL1 (11718748_at) / Fold change /veh C1QL1 (11718748_at) / RFU TMPRSS4 (11747572_a_at) / Fold change /veh TMPRSS4 (11747572_a_at) / RFU HAMP (11756126_x_at) / Fold change /veh HAMP (11756126_x_at) / RFU RNFT2 (11725882_a_at) / Fold change /veh RNFT2 (11725882_a_at) / RFU NR4A2 (11747474_a_at) / Fold change /veh NR4A2 (11747474_a_at) / RFU ABCC12 (11746883_a_at) / Fold change /veh ABCC12 (11746883_a_at) / RFU TMEM136 (11760407_x_at) / Fold change /veh TMEM136 (11760407_x_at) / RFU CLDN22 /// WWC2 (11732394_at) / Fold change /veh CLDN22 /// WWC2 (11732394_at) / RFU HLA-DPB1 (11760878_x_at) / Fold change /veh HLA-DPB1 (11760878_x_at) / RFU SPINT1 (11716480_a_at) / Fold change /veh SPINT1 (11716480_a_at) / RFU GAP43 (11754022_s_at) / Fold change /veh GAP43 (11754022_s_at) / RFU A4GNT (11735810_at) / Fold change /veh A4GNT (11735810_at) / RFU PRB3 (11715151_x_at) / Fold change /veh PRB3 (11715151_x_at) / RFU TUBB4B (11761932_at) / Fold change /veh TUBB4B (11761932_at) / RFU CAPN14 (11732068_a_at) / Fold change /veh CAPN14 (11732068_a_at) / RFU TMCC2 (11721928_a_at) / Fold change /veh TMCC2 (11721928_a_at) / RFU IRGQ (11745062_a_at) / Fold change /veh IRGQ (11745062_a_at) / RFU FAM174B (11720279_a_at) / Fold change /veh FAM174B (11720279_a_at) / RFU TMPRSS4 (11748680_a_at) / Fold change /veh TMPRSS4 (11748680_a_at) / RFU FAM212B (11763350_a_at) / Fold change /veh FAM212B (11763350_a_at) / RFU PLEKHG5 (11743358_a_at) / Fold change /veh PLEKHG5 (11743358_a_at) / RFU ZSCAN30 (11745921_a_at) / Fold change /veh ZSCAN30 (11745921_a_at) / RFU CMKLR1 (11741424_a_at) / Fold change /veh CMKLR1 (11741424_a_at) / RFU LOC101060620 /// MAPK8IP1 (11723275_at) / Fold change /veh LOC101060620 /// MAPK8IP1 (11723275_at) / RFU SPTSSB (11747773_x_at) / Fold change /veh SPTSSB (11747773_x_at) / RFU PRSS12 (11739890_at) / Fold change /veh PRSS12 (11739890_at) / RFU BIN1 (11741810_x_at) / Fold change /veh BIN1 (11741810_x_at) / RFU WNT11 (11732464_a_at) / Fold change /veh WNT11 (11732464_a_at) / RFU C10orf10 (11716521_a_at) / Fold change /veh C10orf10 (11716521_a_at) / RFU C5orf56 (11738089_at) / Fold change /veh C5orf56 (11738089_at) / RFU CYB561 (11721691_x_at) / Fold change /veh CYB561 (11721691_x_at) / RFU ANKRD19P (11752326_a_at) / Fold change /veh ANKRD19P (11752326_a_at) / RFU OR2T12 /// OR2T33 /// OR2T8 (11738714_s_at) / Fold change /veh OR2T12 /// OR2T33 /// OR2T8 (11738714_s_at) / RFU VCAN (11748164_a_at) / Fold change /veh VCAN (11748164_a_at) / RFU JSRP1 (11732532_at) / Fold change /veh JSRP1 (11732532_at) / RFU KRTAP10-11 (11738290_x_at) / Fold change /veh KRTAP10-11 (11738290_x_at) / RFU MYO3A (11730013_a_at) / Fold change /veh MYO3A (11730013_a_at) / RFU EBF3 (11725865_a_at) / Fold change /veh EBF3 (11725865_a_at) / RFU CAMK2N1 (11719241_x_at) / Fold change /veh CAMK2N1 (11719241_x_at) / RFU C5orf56 (11738088_a_at) / Fold change /veh C5orf56 (11738088_a_at) / RFU OLFML3 (11715873_a_at) / Fold change /veh OLFML3 (11715873_a_at) / RFU LOC100653217 /// NTM (11731650_a_at) / Fold change /veh LOC100653217 /// NTM (11731650_a_at) / RFU MAPK11 (11762145_a_at) / Fold change /veh MAPK11 (11762145_a_at) / RFU FIZ1 (11724087_x_at) / Fold change /veh FIZ1 (11724087_x_at) / RFU OASL (11726364_x_at) / Fold change /veh OASL (11726364_x_at) / RFU SOX15 (11748057_x_at) / Fold change /veh SOX15 (11748057_x_at) / RFU CD79A (11719716_a_at) / Fold change /veh CD79A (11719716_a_at) / RFU HIST1H1D (11736915_at) / Fold change /veh HIST1H1D (11736915_at) / RFU CASKIN2 (11723855_a_at) / Fold change /veh CASKIN2 (11723855_a_at) / RFU LOC730098 (11760151_x_at) / Fold change /veh LOC730098 (11760151_x_at) / RFU OR4N2 (11742367_at) / Fold change /veh OR4N2 (11742367_at) / RFU PRRT2 (11749266_a_at) / Fold change /veh PRRT2 (11749266_a_at) / RFU SNX32 (11753110_a_at) / Fold change /veh SNX32 (11753110_a_at) / RFU CDHR5 (11726645_a_at) / Fold change /veh CDHR5 (11726645_a_at) / RFU RCAN1 (11760418_a_at) / Fold change /veh RCAN1 (11760418_a_at) / RFU FAM167A (11723789_a_at) / Fold change /veh FAM167A (11723789_a_at) / RFU FAM26E (11764081_at) / Fold change /veh FAM26E (11764081_at) / RFU ISYNA1 (11749810_s_at) / Fold change /veh ISYNA1 (11749810_s_at) / RFU ACY1 (11761880_at) / Fold change /veh ACY1 (11761880_at) / RFU 11764098_at / Fold change /veh 11764098_at / RFU SAMD14 (11745864_x_at) / Fold change /veh SAMD14 (11745864_x_at) / RFU NPB (11741838_a_at) / Fold change /veh NPB (11741838_a_at) / RFU TMPRSS6 (11731388_a_at) / Fold change /veh TMPRSS6 (11731388_a_at) / RFU KRTAP10-2 (11738614_at) / Fold change /veh KRTAP10-2 (11738614_at) / RFU ARHGAP8 /// PRR5-ARHGAP8 (11727945_x_at) / Fold change /veh ARHGAP8 /// PRR5-ARHGAP8 (11727945_x_at) / RFU KRTAP5-7 /// NADSYN1 (11734609_at) / Fold change /veh KRTAP5-7 /// NADSYN1 (11734609_at) / RFU RASL12 (11751679_a_at) / Fold change /veh RASL12 (11751679_a_at) / RFU CDKN2B (11736163_a_at) / Fold change /veh CDKN2B (11736163_a_at) / RFU PRF1 (11729649_at) / Fold change /veh PRF1 (11729649_at) / RFU, ZNF638 /// ZNF638-IT1 / Fold change vs veh, ZNF638 /// ZNF638-IT1 / RFU, PANK3 / Fold change vs veh, PANK3 / RFU, SH3YL1 / Fold change vs veh, SH3YL1 / RFU, ZEB2 / Fold change vs veh, ZEB2 / RFU, NRIP1 / Fold change vs veh, NRIP1 / RFU, PTTG1IP / Fold change vs veh, PTTG1IP / RFU, CAPN2 / Fold change vs veh, CAPN2 / RFU, MED14 / Fold change vs veh, MED14 / RFU, SNORA58 / Fold change vs veh, SNORA58 / RFU, C1orf63 / Fold change vs veh, C1orf63 / RFU, LRRFIP1 / Fold change vs veh, LRRFIP1 / RFU, NDUFAF7 / Fold change vs veh, NDUFAF7 / RFU, SLC12A2 / Fold change vs veh, SLC12A2 / RFU, IBTK / Fold change vs veh, IBTK / RFU, ESF1 / Fold change vs veh, ESF1 / Fold change vs veh, TMEM50B / RFU, TAOK1 / Fold change vs veh, TAOK1 / RFU, ACBD3 / Fold change vs veh, ACBD3 / RFU, TMA16 / Fold change vs veh, TMA16 / RFU, RWDD3 / Fold change vs veh, RWDD3 / RFU, BCAT1 / Fold change vs veh, BCAT1 / RFU, EDEM3 / Fold change vs veh, EDEM3 / RFU, TMEM33 / Fold change vs veh, TMEM33 / RFU, WDR75 / Fold change vs veh, WDR75 / RFU, AHCTF1 / Fold change vs veh, AHCTF1 / RFU, TFRC / Fold change vs veh, TFRC / RFU, ZDHHC17 / Fold change vs veh, ZDHHC17 / RFU, NOM1 / Fold change vs veh, NOM1 / RFU, ARL8B / Fold change vs veh, ARL8B / RFU, ZBTB11 / Fold change vs veh, ZBTB11 / RFU, TAMM41 / Fold change vs veh, TAMM41 / RFU, KIAA1704 /// LOC100996395 / Fold change vs veh, KIAA1704 /// LOC100996395 / RFU, ING1 / Fold change vs veh, ING1 / RFU, TRMT61B / Fold change vs veh, TRMT61B / RFU, FUBP3 / Fold change vs veh, FUBP3 / RFU, TP53 / Fold change vs veh, TP53 / RFU, TNKS2 / Fold change vs veh, TNKS2 / RFU, ZFP14 / Fold change vs veh, ZFP14 / RFU, ACTR2 / Fold change vs veh, ACTR2 / RFU, PPP3R1 / Fold change vs veh, PPP3R1 / RFU, PIK3R1 / Fold change vs veh, PIK3R1 / RFU, HNRNPA1 / Fold change vs veh, HNRNPA1 / RFU, RNF170 / Fold change vs veh, RNF170 / RFU, ZNF28 / Fold change vs veh, ZNF28 / RFU, RNGTT / Fold change vs veh, RNGTT / RFU, OGT / Fold change vs veh, OGT / RFU, BRD1 / Fold change vs veh, BRD1 / RFU, MARS / Fold change vs veh, MARS / RFU, ZNF655 / Fold change vs veh, ZNF655 / RFU, FAHD1 / Fold change vs veh, FAHD1 / RFU, BDP1 / Fold change vs veh, BDP1 / RFU, LRRCC1 / Fold change vs veh, LRRCC1 / RFU, ARID1A / Fold change vs veh, ARID1A / RFU, ZNF146 / Fold change vs veh, ZNF146 / RFU, ZNF330 / Fold change vs veh, ZNF330 / RFU, GPN3 / Fold change vs veh, GPN3 / RFU, C9orf123 / Fold change vs veh, C9orf123 / RFU, N4BP2L2 / Fold change vs veh, N4BP2L2 / RFU, ARFIP1 / Fold change vs veh, ARFIP1 / RFU, FAM179B / Fold change vs veh, FAM179B / RFU, BCL10 / Fold change vs veh, BCL10 / RFU, UHRF1BP1L / Fold change vs veh, UHRF1BP1L / RFU, BET1 / Fold change vs veh, BET1 / RFU, CNOT2 / Fold change vs veh, CNOT2 / RFU, ZNF268 / Fold change vs veh, ZNF268 / Fold change vs veh, ZNF507 / RFU, DGCR2 / Fold change vs veh, DGCR2 / RFU, WDSUB1 / Fold change vs veh, WDSUB1 / Fold change vs veh, HSP90B1 /// MIR3652 / RFU, ADSS / Fold change vs veh, ADSS / RFU, GK / Fold change vs veh, GK / RFU, ZNF148 / Fold change vs veh, ZNF148 / RFU, TAF9 / Fold change vs veh, TAF9 / RFU, SLC1A5 / Fold change vs veh, SLC1A5 / RFU, SLMO2 / Fold change vs veh, SLMO2 / RFU, ABCC4 / Fold change vs veh, ABCC4 / RFU, LOC101060439 /// RAP1B / Fold change vs veh, LOC101060439 /// RAP1B / RFU, RFX7 / Fold change vs veh, RFX7 / RFU, GTPBP10 / Fold change vs veh, GTPBP10 / RFU, CNEP1R1 / Fold change vs veh, CNEP1R1 / RFU, BIVM-ERCC5 /// ERCC5 / Fold change vs veh, BIVM-ERCC5 /// ERCC5 / RFU, ILF3 / Fold change vs veh, ILF3 / RFU 11762660_at / Fold change /veh 11762660_at / RFU VCAN (11757783_s_at) / Fold change /veh VCAN (11757783_s_at) / RFU DDX43 (11728927_at) / Fold change /veh DDX43 (11728927_at) / RFU KRT8 (11758188_x_at) / Fold change /veh KRT8 (11758188_x_at) / RFU NKD1 (11759106_at) / Fold change /veh NKD1 (11759106_at) / RFU SRD5A1 (11742802_a_at) / Fold change /veh SRD5A1 (11742802_a_at) / RFU TPSAB1 /// TPSB2 (11721975_s_at) / Fold change /veh TPSAB1 /// TPSB2 (11721975_s_at) / RFU GSTM3 (11746129_a_at) / Fold change /veh GSTM3 (11746129_a_at) / RFU IL23R (11737362_x_at) / Fold change /veh IL23R (11737362_x_at) / RFU TMEM51 (11727254_a_at) / Fold change /veh TMEM51 (11727254_a_at) / RFU PIWIL2 (11732686_x_at) / Fold change /veh PIWIL2 (11732686_x_at) / RFU ORM1 (11744905_x_at) / Fold change /veh ORM1 (11744905_x_at) / RFU CCDC152 (11743942_at) / Fold change /veh CCDC152 (11743942_at) / RFU ECM1 (11717891_a_at) / Fold change /veh ECM1 (11717891_a_at) / RFU IL23R (11748794_a_at) / Fold change /veh IL23R (11748794_a_at) / RFU TNFAIP8L3 (11732012_x_at) / Fold change /veh TNFAIP8L3 (11732012_x_at) / RFU MBOAT4 (11741988_at) / Fold change /veh MBOAT4 (11741988_at) / RFU 11764193_at / Fold change /veh 11764193_at / RFU TMEM53 (11763286_at) / Fold change /veh TMEM53 (11763286_at) / RFU MAGEB2 (11727129_at) / Fold change /veh MAGEB2 (11727129_at) / RFU TMEM200A (11744735_a_at) / Fold change /veh TMEM200A (11744735_a_at) / RFU CCDC152 (11751479_a_at) / Fold change /veh CCDC152 (11751479_a_at) / RFU FAM211A (11726209_a_at) / Fold change /veh FAM211A (11726209_a_at) / RFU RGS16 (11746705_a_at) / Fold change /veh RGS16 (11746705_a_at) / RFU VCAN (11755009_s_at) / Fold change /veh VCAN (11755009_s_at) / RFU RHOB (11743442_s_at) / Fold change /veh RHOB (11743442_s_at) / RFU RGS16 (11720943_a_at) / Fold change /veh RGS16 (11720943_a_at) / RFU RGS16 (11720944_at) / Fold change /veh RGS16 (11720944_at) / RFU, VPS4B / Fold change vs veh, VPS4B / RFU, CREB1 / Fold change vs veh, CREB1 / RFU, DNAJC13 / Fold change vs veh, DNAJC13 / RFU, GNAQ / Fold change vs veh, GNAQ / RFU, CDK5R1 / Fold change vs veh, CDK5R1 / RFU, ZRANB3 / Fold change vs veh, ZRANB3 / RFU, CUL4A / Fold change vs veh, CUL4A / RFU, CCNY / Fold change vs veh, CCNY / RFU, UFL1 / Fold change vs veh, UFL1 / RFU, COG3 / Fold change vs veh, COG3 / RFU, DIAPH2 / Fold change vs veh, DIAPH2 / RFU, SKA2 / Fold change vs veh, SKA2 / RFU, AFF3 / Fold change vs veh, AFF3 / RFU, LMF1 / Fold change vs veh, LMF1 / RFU, IPO11 / Fold change vs veh, IPO11 / RFU, DFFB / Fold change vs veh, DFFB / RFU, FOXP1 / Fold change vs veh, FOXP1 / RFU, CARD8 / Fold change vs veh, CARD8 / RFU, STRN3 / Fold change vs veh, STRN3 / RFU, ADK / Fold change vs veh, ADK / RFU, RASSF2 / Fold change vs veh, RASSF2 / RFU, WIPF1 / Fold change vs veh, WIPF1 / RFU, LARP1B / Fold change vs veh, LARP1B / RFU, RASA1 / Fold change vs veh, RASA1 / RFU, RB1 / Fold change vs veh, RB1 / RFU, PPFIA1 / Fold change vs veh, PPFIA1 / RFU, MAT2A / Fold change vs veh, MAT2A / RFU, CCT5 / Fold change vs veh, CCT5 / RFU, WDR92 / Fold change vs veh, WDR92 / RFU, CUX1 / Fold change vs veh, CUX1 / RFU, TTC7A / Fold change vs veh, TTC7A / RFU, TMEM135 / Fold change vs veh, TMEM135 / RFU, DEPTOR / Fold change vs veh, DEPTOR / RFU, CPM / Fold change vs veh, CPM / RFU, DNAJB6 / Fold change vs veh, DNAJB6 / RFU, CACNA2D3 / Fold change vs veh, CACNA2D3 / RFU, DTX4 / Fold change vs veh, DTX4 / RFU, TFCP2 / Fold change vs veh, TFCP2 / RFU, GMCL1 /// GMCL1P1 / Fold change vs veh, GMCL1 /// GMCL1P1 / RFU, AEBP2 / Fold change vs veh, AEBP2 / RFU, SNHG1 /// SNORD22 /// SNORD25 /// SNORD26 /// SNORD27 /// SNORD28 /// SNORD29 /// SNORD31 / Fold change vs veh, SNHG1 /// SNORD22 /// SNORD25 /// SNORD26 /// SNORD27 /// SNORD28 /// SNORD29 /// SNORD31 / Fold change (Aza/veh), C12orf56 (ProbeSet 11735607_a_at) / Fold change (ACY-1035/veh), C12orf56 (ProbeSet 11735607_a_at) / Fold change (Aza/veh), FGFR1OP (ProbeSet 11751329_s_at) / Fold change (ACY-1035/veh), FGFR1OP (ProbeSet 11751329_s_at) / Fold change (Aza/veh), VPS36 (ProbeSet 11739960_a_at) / Fold change (ACY-1035/veh), VPS36 (ProbeSet 11739960_a_at) / RFU SYPL1 (11715823_x_at) / Fold change /veh SYPL1 (11715823_x_at) / RFU IGFBP7 (11715501_s_at) / Fold change /veh IGFBP7 (11715501_s_at) / RFU REEP3 (11722064_at) / Fold change /veh REEP3 (11722064_at) / RFU IGLL1 (11728026_x_at) / Fold change /veh IGLL1 (11728026_x_at): dose or concentration left out as unconfirmed. Particulars: MV-4-11 cells, 48 hours.

As to `Nc1ncn([C@@H]2O[C@H](CO)[C@@H](O)[C@H]2O)c(=O)n1` [azacitidine], the “Fold change /veh PODN (11730768_x_at)” value came to 1.12.
